Data: patent publication US12258338B2, “Modulators of the integrated stress response pathway” (EVOTEC INTERNATIONAL GMBH, priority 2019, dated 2025)
Values after ≈ are worked out from the molar mass of the structure shown. Like-named read-outs stand apart in the source and are kept apart here.

Legend:
ATF4 = assay: HEK-ATF4 High Content Imaging assay (prevention of Tunicamycin induced ISR; ATF4 signal ratio between nucleus and cytoplasm); type: cell-based
In short: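 Wild-type HEK293 cells in 0.3% FBS medium were co-treated with compounds and Tunicamycin (3.3 μM in prediluted medium, 11-fold over final) for 6 h at 37 °C. Fixed cells were immunostained for ATF4 with Hoechst nuclei; imaging gave nuclear/cytoplasmic ATF4 ratio, with nuclei counts as toxicity control.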

[1] = Thermodynamic (Equilibrium) solubility in selected buffer; type: physicochemical; details: for solubility: aqueous buffer, thermodynamic from solid
Experimental: Protocol—Thermodynamic (Equilibrium) Solubility in Selected Buffer
Example compounds were tested in the Thermodynamic (Equilibrium) solubility in selected buffer assay. The test compound, in powder form, was weighted into a 4 mL glass vial and a calculated volume of selected medium was added to reach the target concentration of the solubility test (1 mg/mL). The solution was then stirred overnight at r.t. protected from the light. The solution was filtered through a 0.45 μm PTFE membrane at ambient temperature. An aliquot of the resulting filtrate was quantified using UPLC-UV method described below against a reference solution of the test compound, 0.8 mg/mL in DMSO. Media compositions: Phosphate buffer 50 mM (pH=2.0) […] of NaH2PO4, H2O in 200 mL of ultrapurified water adjusted at pH 2 with phosphoric acid 85%; Acetate buffer 50 mM (pH=5.5) 820 mg of anhydrous sodium acetate in 200 mL of ultrapurified water adjusted at pH 5.5 with acetic acid 99.8%; Phosphate buffer 50 mM (pH=7.4) 40.5 mL of Na2HPO4 0.1 M solution+9.5 mL of NaH2PO4 0.1 M solution. Analytical conditions: UPLC-UV-MS analyses were performed with a Waters Acquity UPLC HClass-PDA-QDa system using a reverse phase Acquity BEH C18 column (2.1 mm×50 mm, 1.7 μm; temperature: 40° C.) and a gradient of 10-95% B (A=0.1% formic acid in H2O; B=0.05% formic acid in ACN) over 1.8 min then 100% B for 0.8 min, with an injection volume of 0.4 μL at flow rate of 0.65 mL/min. UV chromatograms were recorded at 220 nm, 254 nm and 290 nm using a photo diode array detector. Mass spectra were recorded in the 150 to 900 M/Z range at a sampling rate of 10 scans per sec using a QDa detector. Data were integrated using Empower®3 software. Data Analysis: Equilibrium solubility of the test compound in the selected medium was calculated through the ratio of the surface area of the UV chromatographic peak of the compound in the filtrate to the surface of the UV chromatographic peak of the compound in the reference solution.

[2] = molecular target: T1, human ERG potassium channel (hERG) (Homo sapiens, UniProt Q12809); assay: hERG channel tail current recording using in vitro Rapid ICE (automated patch-clamp, QPatch HTX); type: cell-based
T1 construct: expressed in transfected cells; host or cells: HEK293, stably transfected, tetracycline-inducible promoter
In short: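 Automated patch clamp on tetracycline-induced HEK293 hERG cells; pulse −80 to −50 mV 200 ms, +20 mV 4.8 s, −50 mV 5 s tail, extracellular pH 7.4. Compound at 0.3, 3, 30 μM (0.3% DMSO), 5 min exposure; tail current versus vehicle gives % inhibition and estimated IC50.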

[3] = Log D 7.4 assay (1-octanol / phosphate buffer pH 7.4); type: physicochemical
Experimental: Phosphate buffer (1 M) was diluted to 20 mM with deionised water and adjusted to pH 7.4 (±0.05) with phosphoric acid or sodium hydroxide. A 1:1 mixture of phosphate buffer (20 mM) and 1-octanol were saturated by tumbling overnight after which time the two phases were separated. Using an automated liquid handler the following procedure was carried out: 20 mM DMSO stocks of assay and control compounds were reformatted to provide cassettes of 4 compounds per well giving a final concentration of 5 mM per compound. In duplicate 5 μL of the cassetted compounds were added to 495 μL 1-octanol (saturated with buffer) followed by 495 μL of buffer (saturated with 1-octanol) in a 96-well plate giving final incubation concentrations of 25 μM (50 μM max concentration in either layer if all compound partitioned into a single matrix). The layers were mixed by aspirating and dispensing the buffer and octanol layers into one another three times. The plate was sealed, shaken for 120 minutes and then centrifuged at 25° C. for 15 min at 4600 rpm. The 1-octanol and buffer layer were sampled separately (ensuring no cross contamination) and the respective samples diluted with 60:40 ACN:0.1 M ammonium acetate pH 7.4 (containing external standard; Sulfisoxazole, assay concentration 120 nM) to obtain final theoretical maximum concentrations of the 1-octanol layer of 0.025 μM, 0.5 μM and a buffer layer concentration of 0.5 μM. The second buffer sample was prepared by diluting the assay buffer layer with acetonitrile (containing external standard; Sulfisoxazole, assay concentration 120 nM) to give a theoretical maximum concentration of 20 μM. The analytical samples were analysed by LC-MS/MS and the Log D calculated as shown:
[formula] Where PA=Peak area and ES=External standard

[4] = Table 24 category key, read-out: HEK-ATF4 Activity*
[5] = acetate buffer 50 mM, pH 5, Table 24, read-out: Solubility (μg/mL) pH 5
[6] = phosphate buffer 50 mM, pH 2, Table 24, read-out: Solubility (μg/mL) pH 2
[7] = phosphate buffer 50 mM, pH 7.4, Table 24, read-out: Solubility (μg/mL) pH 7.4
[8] = Homo sapiens, Wild-type HEK293 cells, Tunicamycin induced ISR, 6 h, read-out: IIEK-ATF4 Activity
[9] = acetate buffer 50 mM, pH 5.5, Table 25, read-out: Solubility (μg/mL) pH 5.5
[10] = phosphate buffer 50 mM, pH 2.0, Table 25, read-out: Solubility (μg/mL) pH 2.0
[11] = phosphate buffer 50 mM, pH 7.4, Table 25, read-out: Solubility (μg/mL) pH 7.4

T1 sequence (Q12809 whole entry): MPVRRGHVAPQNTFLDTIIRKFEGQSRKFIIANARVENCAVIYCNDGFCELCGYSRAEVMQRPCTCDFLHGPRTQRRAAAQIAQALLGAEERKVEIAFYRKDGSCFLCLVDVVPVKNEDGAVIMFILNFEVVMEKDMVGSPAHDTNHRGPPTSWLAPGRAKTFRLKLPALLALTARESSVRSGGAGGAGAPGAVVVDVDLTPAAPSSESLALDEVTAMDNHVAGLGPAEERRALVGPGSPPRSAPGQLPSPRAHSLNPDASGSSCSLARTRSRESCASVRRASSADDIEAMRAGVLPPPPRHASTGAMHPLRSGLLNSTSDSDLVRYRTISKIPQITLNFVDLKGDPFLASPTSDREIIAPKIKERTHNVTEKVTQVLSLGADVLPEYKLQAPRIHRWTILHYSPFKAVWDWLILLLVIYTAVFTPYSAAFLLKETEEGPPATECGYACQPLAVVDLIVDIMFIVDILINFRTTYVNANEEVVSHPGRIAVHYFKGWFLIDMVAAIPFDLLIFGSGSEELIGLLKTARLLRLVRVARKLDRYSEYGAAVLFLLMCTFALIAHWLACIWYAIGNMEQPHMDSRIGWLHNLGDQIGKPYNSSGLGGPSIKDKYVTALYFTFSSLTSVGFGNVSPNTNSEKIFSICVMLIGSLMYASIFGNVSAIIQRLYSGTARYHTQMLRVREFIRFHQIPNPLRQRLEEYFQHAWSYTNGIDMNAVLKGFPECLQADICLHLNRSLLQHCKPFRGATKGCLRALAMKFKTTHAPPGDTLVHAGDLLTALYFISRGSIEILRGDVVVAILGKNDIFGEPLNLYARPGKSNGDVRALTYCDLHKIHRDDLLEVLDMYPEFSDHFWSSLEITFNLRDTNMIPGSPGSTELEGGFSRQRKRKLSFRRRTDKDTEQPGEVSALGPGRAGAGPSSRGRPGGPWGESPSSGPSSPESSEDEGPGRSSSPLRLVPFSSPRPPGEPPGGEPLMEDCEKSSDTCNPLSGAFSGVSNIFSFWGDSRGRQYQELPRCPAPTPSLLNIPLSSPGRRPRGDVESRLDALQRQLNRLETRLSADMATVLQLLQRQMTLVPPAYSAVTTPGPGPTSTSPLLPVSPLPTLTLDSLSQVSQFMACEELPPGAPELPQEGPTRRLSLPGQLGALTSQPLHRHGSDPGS

IC50 (ATF4; [4]) [nM]	solubility [1, 5] [µg/mL]	solubility [1, 6] [µg/mL]	solubility [1, 7] [µg/mL]	logD at 120 min [3]	IC50 (ATF4; [8]) [nM]	solubility [1, 9] [µg/mL]	solubility [1, 10] [µg/mL]	solubility [1, 11] [µg/mL]	Solubility (μg/mL) pH 2.0 ([1]; pH 2.0, Table 25)	SMILES	IC50 ([2]; Table 24) [nM]	IC50 ([2]; Table 26) [nM]
					1 to 500	256 (≈ 504 µM)	982 (≈ 1930 µM)	132 (≈ 260 µM)		O=C(COc1ccc(Cl)c(F)c1)N[C@H]1CC[C@H](c2nnc(N3CC[C@H](OC(F)(F)F)C3)o2)NC1 (single isomer, unassigned) [Example 110]		> 5000
					500 to 2000	663 (≈ 1350 µM)		501 (≈ 1020 µM)	quant.^#	O=C(COc1ccc(Cl)c(F)c1)N[C@H]1CC[C@H](c2nnc(C3CN(CC(F)(F)F)C3)o2)NC1 [Example 57, 2-(4-chloro-3-fluorophenoxy)-N-[(3S,6R)-6-{5-[1-(2,2,2-trifluoroethyl)azetidin-3-yl]-1,3,4-oxadiazol-2-yl}piperidin-3-yl]acetamide]		> 5000
					2000 to 15000	168 (≈ 354 µM)	909 (≈ 1910 µM)	102 (≈ 215 µM)		O=C(COc1ccc(Cl)c(F)c1)N[C@H]1CC[C@H](c2nnc(OC3CCC(F)(F)C3)o2)NC1 (stereo partly drawn) [Example 68, 2-(4-chloro-3-fluorophenoxy)-N-[(3S,6R)-6-{5-[(3,3-difluorocyclopentyl)oxy]-1,3,4-oxadiazol-2-yl}piperidin-3-yl]acetamide]		1000 to 5000
					1 to 500	98 (≈ 203 µM)	810 (≈ 1680 µM)	76 (≈ 157 µM)		O=C(COc1ccc(Cl)c(F)c1)N[C@H]1CC[C@H](c2nnc(OCCOC(F)(F)F)o2)NC1 [Example 77, 2-(4-chloro-3-fluorophenoxy)-N-[(3S,6R)-6-{5-[2-(trifluoromethoxy)ethoxy]-1,3,4-oxadiazol-2-yl}piperidin-3-yl]acetamide]		1000 to 5000
					1 to 500	9 (≈ 17.7 µM)	911 (≈ 1790 µM)	6 (≈ 11.8 µM)		O=C(COc1ccc(Cl)c(F)c1)N[C@H]1CC[C@H](c2nnc(N3CC[C@@H](OC(F)(F)F)C3)o2)NC1 (single isomer, unassigned) [Example 111]		1000 to 5000

The remaining lines, values behind:

SMILES	IC50 (ATF4; [4]) [nM]	solubility [1, 5] [µg/mL]	solubility [1, 6] [µg/mL]	solubility [1, 7] [µg/mL]	logD at 120 min [3]	IC50 (ATF4; [8]) [nM]	solubility [1, 9] [µg/mL]	solubility [1, 10] [µg/mL]	solubility [1, 11] [µg/mL]	Solubility (μg/mL) pH 2.0 ([1]; pH 2.0, Table 25)	IC50 ([2]; Table 24) [nM]	IC50 ([2]; Table 26) [nM]
O=C(COc1ccc(Cl)c(F)c1)N[C@@H]1CC[C@@H](c2nnc(COC(F)(F)F)o2)OC1 [WO201904 6779 Ex 30, reference compound]	500 to 2000	3 (≈ 6.61 µM)	3 (≈ 6.61 µM)	3 (≈ 6.61 µM)	2.9						1 to 1000	
O=C(COc1ccc(Cl)c(F)c1)N[C@H]1CC[C@H](c2nnc(OCCOC(F)F)o2)NC1 [Example 75, 2-(4-chloro-3-fluorophenoxy)-N-[(3S,6R)-6-{5-[2-(difluoromethoxy)ethoxy]-1,3,4-oxadiazol-2-yl}piperidin-3-yl]acetamide]						1 to 500	26 (≈ 55.9 µM)	713 (≈ 1530 µM)	22 (≈ 47.3 µM)			1000 to 5000
O=C(COc1ccc(Cl)c(Cl)c1)N[C@H]1CC[C@H](c2nnc([C@H]3C[C@@H](OC(F)F)C3)o2)NC1 [Example 60, 2-(3,4-dichlorophenoxy)-N-[(3S,6R)-6-(5-[(1s,3s)-3-(difluoromethoxy)cyclobutyl]-1,3,4-oxadiazol-2-yl}piperidin-3-yl]acetamide]						1 to 500	47 (≈ 95.7 µM)	886 (≈ 1800 µM)	91 (≈ 185 µM)			1 to 1000
O=C(COc1ccc(Cl)c(C(F)F)c1)N[C@H]1CC[C@H](c2nnc(OCCOC(F)(F)F)o2)NC1 [Example 11, 2-[4-chloro-3-(difluoromethyl)phenoxy]-N-[(3S,6R)-6-{5-[2-(trifluoromethoxy)ethoxy]-1,3,4-oxadiazol-2-yl}piperidin-3-yl]acetamide]						1 to 500	60 (≈ 117 µM)	617 (≈ 1200 µM)	42 (≈ 81.6 µM)			> 5000
O=C(COc1ccc(Cl)c(F)c1)N[C@H]1CC[C@H](c2nnc(-c3ccc(C(F)(F)F)nc3)o2)NC1 [Example 52, 2-(4-chloro-3-fluorophenoxy)-N-[(3S,6R)-6-{5-[6-(trifluoromethyl)pyridin-3-yl]-1,3,4-oxadiazol-2-yl}piperidin-3-yl]acetamide]						1 to 500	9 (≈ 18 µM)	839 (≈ 1680 µM)	7 (≈ 14 µM)			1 to 1000
O=C(COc1ccc(Cl)c(F)c1)N[C@@H]1CC[C@@H](c2nnc([C@H]3C[C@@H](OC(F)(F)F)C3)o2)OC1 [WO201904 6779 Ex 1, reference compound]	1 to 500	< 1	< 1	< 1	3.6						1000 to 5000	
